From patent publication EP2058315A1, “1H-Furo[3,2-C]Pyrazoles active as aurora kinase inhibitors” (Nerviano Medical Sciences S.r.l., priority 2007, dated 2009)
Read-outs that look alike come from different tables or passages of the source.

Tests used:
Aurora-2 = target: T1, Aurora-2 (Homo sapiens, UniProt O14965); experiment: Inhibition assay of Aurora-2 activity (SPA technology); type: biochemical
T1 sequence (O14965 1-403): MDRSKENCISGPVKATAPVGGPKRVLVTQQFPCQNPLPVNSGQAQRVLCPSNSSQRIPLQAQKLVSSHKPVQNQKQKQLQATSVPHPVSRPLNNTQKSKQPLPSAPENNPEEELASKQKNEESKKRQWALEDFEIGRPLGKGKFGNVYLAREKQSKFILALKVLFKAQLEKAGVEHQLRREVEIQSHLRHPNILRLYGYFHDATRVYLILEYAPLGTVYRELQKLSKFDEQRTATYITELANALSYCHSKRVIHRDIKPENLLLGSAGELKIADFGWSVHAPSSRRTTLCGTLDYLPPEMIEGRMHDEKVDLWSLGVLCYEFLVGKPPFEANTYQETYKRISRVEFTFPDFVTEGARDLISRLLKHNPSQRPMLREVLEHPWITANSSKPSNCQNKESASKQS
Procedure: The inhibiting activity and the potency of selected compounds is determined through a method of assay based on the use of the SPA technology (Amersham Pharmacia Biotech).
The assay consists of the transfer of radioactivity labelled phosphate moiety by the kinase to a biotinylated substrate. The resulting 33P-labelled biotinylated product is allowed to bind to streptavidin-coated SPA beads (biotin capacity 130 pmol/mg), and light emitted was measured in a scintillation counter.
Kinase reaction: 8 µM biotinylated peptide (4 repeats of LRRWSLG, commercially available from Sigma, catalogue no. L-3523), 10 µM ATP (0.5 uCi P^33γ-ATP), 7.5 ng Aurora 2, inhibitor in a final volume of 30 µl buffer (HEPES 50 mM pH 7.0, MgCl2 10 mM, 1 mM DTT, 0.2 mg/mL BSA, 3 µM orthovanadate) were added to each well of a 96 U bottom well plate. After 60 minutes at room temperature incubation, the reaction was stopped and biotinylated peptide captured by adding 100 µl of bead suspension.
Stratification: 100 µl of CsCl 5 M were added to each well and stood for 4 hours before radioactivity was counted in the Top-Count instrument.
IC50 determination: inhibitors were tested at different concentrations ranging from 0.0015 to 10 µM. Experimental data were analyzed by the computer program GraphPad Prizm using the four parameter logistic equation: y = bottom+(top-bottom)/(1+10^((logIC50-x)*slope)) where x is the logarithm of the inhibitor concentration, y is the response; y starts at bottom and goes to top with a sigmoid shape. Ki calculation: Experimental method: Reaction was carried out in buffer (10 mM Tris, pH 7.5, 10 mM MgCl2, 0.2 mg/mL BSA, 7.5 mM DTT) containing 3.7 nM enzyme, histone and ATP (constant ratio of cold/labeled ATP 1/3000). The reaction was stopped with EDTA and the substrate captured on phosphomembrane (Multiscreen 96 well plates from Millipore). After extensive washing, the multiscreen plates were read on a top counter. Control (time zero) for each ATP and histone concentrations was measured.

[1] = system: human colon cancer cell line HCT-116; experiment: In vitro cell proliferation assay; type: cell-based; settings: HCT-116, 72 hours of treatment, cell count, read-out: Cell Antiproliferation (HCT-116) IC50
Procedure: The human colon cancer cell line HCT-116 was seeded at 5000 cells/cm^2 in 24 wells plate (Costar) using F12 medium (Gibco) supplemented with 10% FCS (EuroClone, Italy) 2 mM L-glutamine and 1% penicillin/streptomycin and maintained at 37°C, 5% CO2 and 96% relative humidity. The following day, plates were treated in duplicates with 5ul of an appropriate dilution of compounds starting from a 10 mM stock in DMSO. Two untreated control wells were included in each plate. After 72 hours of treatment, medium was withdrawn and cells detached from each well using 0.5 mL of 0.05% (w/v) Trypsin, 0,02% (w/v) EDTA (Gibco). Samples were diluted with 9.5 mL of Isoton (Coulter) and counted using a Multisizer 3 cell counter (Beckman Coulter). Data were evaluated as percent of the control wells: % of CTR = (Treated - Blank)/(Control - Blank).
IC50 values were calculated by LSW/Data Analysis using Microsoft Excel sigmoidal curve fitting. […] See, as an example, the following Table 1 reporting the experimental data of some representative compounds of the invention being tested as Aurora-2 kinase inhibitors (IC50 nM) and for their cell antiproliferative effect (IC50 nM), namely: • Compound (1) is 3-[(Thiophene-2-carbonyl)-amino]-1H-furo[3,2-c]pyrazole-5-carboxylic acid (1-methyl-1-phenyl-ethyl)-amide; • Compound (2) is 3-(4-Morpholin-4-ylmethyl-benzoylamino)-1H-furo[3,2-c]pyrazole-5-carboxylic acid[1-(2-fluoro-phenyl)-1-methyl-ethyl]-amide • Compound (3) is 3-[4-(4-Methyl-piperazin-1-yl)-benzoylamino]-1H-furo[3,2-c]pyrazole-5-carboxylic acid (1-phenyl-cyclopropyl)-amide Table 1

[2] = 10 µM ATP, 60 minutes at room temperature, SPA, read-out: Aurora-2 inhibition IC50
[3] = screened according to the methods of the pharmacology section, read-out: IC50values for Aur2 inhibition

SMILES: CC(C)(NC(=O)c1cc2[nH]nc(NC(=O)c3cccs3)c2o1)c1ccccc1 [Compound 1, 3-[(Thiophene-2-carbonyl)-amino]-1H-furo[3,2-c]pyrazole-5-carboxylic acid (1-methyl-1-phenyl-ethyl)-amide]
- IC50 (Aurora-2; [2]): 0.003 µM
- IC50 (Aurora-2; [3]): < 0.01 µM
- IC50 [1]: 0.01 µM

SMILES: CC(C)(NC(=O)c1cc2[nH]nc(NC(=O)c3ccc(CN4CCOCC4)cc3)c2o1)c1ccccc1F [Compound 2, 3-(4-Morpholin-4-ylmethyl-benzoylamino)-1H-furo[3,2-c]pyrazole-5-carboxylic acid[1-(2-fluoro-phenyl)-1-methyl-ethyl]-amide]
- IC50 (Aurora-2; [2]): 0.001 µM
- IC50 (Aurora-2; [3]): < 0.01 µM
- IC50 [1]: 0.002 µM
- IC50 ([1]; Homo sapiens, HCT-116, 72 h): 0.004 to 0.01 µM

SMILES: CN1CCN(c2ccc(C(=O)Nc3n[nH]c4cc(C(=O)NC5(c6ccccc6)CC5)oc34)cc2)CC1 [Compound 3, 3-[4-(4-Methyl-piperazin-1-yl)-benzoylamino]-1H-furo[3,2-c]pyrazole-5-carboxylic acid (1-phenyl-cyclopropyl)-amide]
- IC50 (Aurora-2; [2]): 0.004 µM
- IC50 (Aurora-2; [3]): < 0.01 µM
- IC50 [1]: 0.004 µM
- IC50 ([1]; Homo sapiens, HCT-116, 72 h): 0.004 to 0.01 µM

SMILES: CN1CCN(Cc2ccc(C(=O)Nc3n[nH]c4cc(C(=O)NC(C)(C)c5ccccc5F)oc34)cc2)CC1 [Compound 60, N-[1-(2-fluorophenyl)-1-methylethyl]-3-({4-[(4-methylpiperazin-1-yl)methyl]benzoyl}amino)-1H-furo[3,2-c]pyrazole-5-carboxamide]
- IC50 (Aurora-2; [3]): < 0.01 µM

SMILES: CC(C)(NC(=O)c1cc2[nH]nc(NC(=O)c3ccoc3)c2o1)c1ccccc1 [Compound 62, 3-(3-furoylamino)-N-(1-methyl-1-phenylethyl)-1H-furo[3,2-c]pyrazole-5-carboxamide]
- IC50 (Aurora-2; [3]): < 0.01 µM

SMILES: CC(C)(NC(=O)c1cc2[nH]nc(NC(=O)c3ccsc3)c2o1)c1ccccc1 [Compound 63, N-(1-methyl-1-phenylethyl)-3-[(3-thienylcarbonyl)amino]-1H-furo[3,2-c]pyrazole-5-carboxamide]
- IC50 (Aurora-2; [3]): < 0.01 µM

SMILES: CC(C)(NC(=O)c1cc2[nH]nc(NC(=O)c3cscn3)c2o1)c1ccccc1 [Compound 64, N-(1-methyl-1-phenylethyl)-3-[(1,3-thiazol-4-ylcarbonyl)amino]-1H-furo[3,2-c]pyrazole-5-carboxamide]
- IC50 (Aurora-2; [3]): < 0.01 µM

SMILES: CN1CCN(c2ccc(C(=O)Nc3n[nH]c4cc(C(=O)NC(C)(C)c5ccccc5F)oc34)cc2)CC1 [Compound 67, N-[1-(2-fluorophenyl)-1-methylethyl]-3-{[4-(4-methylpiperazin-1-yl)benzoyl]amino}-1H-furo[3,2-c]pyrazole-5-carboxamide]
- IC50 (Aurora-2; [3]): < 0.01 µM

SMILES: CC(C)(NC(=O)c1cc2[nH]nc(NC(=O)c3ccc(OCCN4CCCC4)cc3)c2o1)c1ccccc1 [Compound 68, N-(1-methyl-1-phenylethyl)-3-{[4-(2-pyrrolidin-1-ylethoxy)benzoyl]amino}-1H-furo[3,2-c]pyrazole-5-carboxamide]
- IC50 (Aurora-2; [3]): < 0.01 µM

SMILES: CC(C)(NC(=O)c1cc2[nH]nc(NC(=O)c3ccc(OCCN4CCCC4)cc3)c2o1)c1ccccc1F [Compound 69, N-[1-(2-fluorophenyl)-1-methylethyl]-3-{[4-(2-pyrrolidin-1-ylethoxy)benzoyl]amino}-1H-furo[3,2-c]pyrazole-5-carboxamide]
- IC50 (Aurora-2; [3]): < 0.01 µM

SMILES: CC(C)NCc1ccc(C(=O)Nc2n[nH]c3cc(C(=O)NC(C)(C)c4ccccc4)oc23)cc1 [Compound 70, 3-({4-[(isopropylamino)methyl]benzoyl}amino)-N-(1-methyl-1-phenylethyl)-1H-furo[3,2-c]pyrazole-5-carboxamide]
- IC50 (Aurora-2; [3]): < 0.01 µM

SMILES: CC(C)(NC(=O)c1cc2[nH]nc(NC(=O)c3ccccc3)c2o1)c1ccccc1 [Compound 71, 3-(benzoylamino)-N-(1-methyl-1-phenylethyl)-1H-furo[3,2-c]pyrazole-5-carboxamide]
- IC50 (Aurora-2; [3]): < 0.01 µM

SMILES: CC(C)(NC(=O)c1cc2[nH]nc(NC(=O)c3ccccc3)c2o1)c1ccccc1F [Compound 72, 3-(benzoylamino)-N-[1-(2-fluorophenyl)-1-methylethyl]-1H-furo[3,2-c]pyrazole-5-carboxamide]
- IC50 (Aurora-2; [3]): < 0.01 µM

SMILES: CC(C)(NC(=O)c1cc2[nH]nc(NC(=O)c3ccc(CN4CCCC4)cc3)c2o1)c1ccccc1F [Compound 73, N-[1-(2-fluorophenyl)-1-methylethyl]-3-{[4-(pyrrolidin-1-ylmethyl)benzoyl]amino}-1H-furo[3,2-c]pyrazole-5-carboxamide]
- IC50 (Aurora-2; [3]): < 0.01 µM

SMILES: CC(C)(NC(=O)c1cc2[nH]nc(NC(=O)c3ccc(CN4CCCCC4)cc3)c2o1)c1ccccc1F [Compound 74, N-[1-(2-fluorophenyl)-1-methylethyl]-3-{[4-(piperidin-1-ylmethyl)benzoyl]amino}-1H-furo[3,2-c]pyrazole-5-carboxamide]
- IC50 (Aurora-2; [3]): < 0.01 µM

SMILES: CC(C)(NC(=O)c1cc2[nH]nc(NC(=O)c3ccc(N4CCOCC4)cc3)c2o1)c1ccccc1 [Compound 75, N-(1-methyl-1-phenylethyl)-3-[(4-morpholin-4-ylbenzoyl)amino]-1H-furo[3,2-c]pyrazole-5-carboxamide]
- IC50 (Aurora-2; [3]): < 0.01 µM
